System: FRC (fetal rat calvarial) cells
Assay: Alkaline phosphatase (AP) activity assay in FRC cells
Assay type: cell-based
Conditions: for MPSF function in concert with OP-1 (figure title): OP-1 200 ng/ml (FIGS. 5–10); for Stimulation of OP-1 osteogenic induction (figure title): OP-1 500 ng/ml (FIG. 1, FIG. 11)
Experimental: A preferred assay for testing potential MPSFs with OP-1 for osteogenic activity is the alkaline phosphatase (AP) enzymatic assay. AP is an osteoblast differentiation marker in primary osteoblastic FRC. (fetal rat calvarial) cells. The OP-1-stimulated AP activity is the result of increased steady-state AP mRNA levels as measured by Northern analysis. The procedure is generally as follows.
Primary osteoblast cell cultures were prepared from fetal rat calvaria using published procedures (M. A. Aronow et al., J. Cell Physiol., 143, pp. 213–221 (1990); T. K. McCarthy et al., J. Bone Miner. Res., 3, pp. 401–8 (1988)). Briefly, cells were harvested by sequential collagenase digestions of the calvarium and cells from digestions III to V were pooled. Fetal rat calvaria (FRC) cells were plated in complete medium (MEM, alpha; GIBCO/BRL, Grand Island, N.Y.) containing 10% fetal bovine serum, vitamin C (100 μg/ml), and antibiotics (100 U/ml penicillin, and […]). Cultures were incubated at 37° C. with 95% air/5% CO2 for several days to reach confluence. Cells were then subcultured for experimentations.
FRC cells were subcultured in 48-well plates (COSTAR, Cambridge, Mass.) in complete MEM medium with 10% fetal bovine serum until confluent in about 4 days. Confluent cells were rinsed with Hank's balanced salt solution (HBSS) and treated with serum-free α-MEM medium (with 0.1% BSA, 100 U/ml penicillin, and […]) containing the appropriate solvent vehicle (50% acetonitrile/0.1% trifluoroacetic acid for OP-1 treatment or 0.1N acetic acid for IGFI treatment) or recombinant human OP-1, or IGFI at the concentrations indicated. Solvent vehicle concentration in the culture medium never exceeded 0.1%. At the end of treatment, cells were lysed and total cellular alkaline phosphatase activity was measured (typically after 48 hours of treatment).
Total cellular alkaline phosphatase activity was determined using a commercial assay kit (Sigma, St. Louis, Mo.). Cell lysates were prepared by aspirating the medium from the 48-well plate, rinsing the cells with ice-cold PBS, and lysing the cells with 0.05% Triton X-100 and sonication for 60 sec. Alkaline phosphatase activity in the lysates was measured in 2-amino-2-methyl-1-propanol buffer (pH 10.3) with p-nitrophenyl phosphate as substrate at 37° C. Reactions were performed in 96-well plates for 1–2 h. Following color development, reactions were terminated with 0.5N NaOH. Absorbance of the reaction was measured at 405 nm using a Hewlett Packard Genenchem automatic plate reader. Total protein level in the lysates was measured according to Bradford (M. Bradford, Anal. Biochem., 72, pp. 248–54 (1976)) using bovine serum albumin as a standard. Alkaline phosphatase activity was expressed as nmol p-nitrophenol liberated per microgram of total cellular protein. […]
At least four experimental groups were tested: control cells treated with no OP-1 or MPSF; group I cells treated with increasing concentrations of MPSF alone; […]; and group III cells, […] concentrations of the MPSF.

[1] = 0.5 nM HC + 200 ng/ml OP-1, 48 hours (FIG. 7)
[2] = PG 5 nM + 200 ng/ml OP-1, 48 hours (FIG. 10)
[3] = IGF-I + OP-1 500 ng/ml (FIG. 1)
[4] = 0.05 nM or 0.5 nM insulin + 200 ng/ml OP-1, 48 hours (FIG. 8)

C[C@]12CCC(=O)C=C1CC[C@@H]1[C@@H]2[C@@H](O)C[C@@]2(C)[C@H]1CC[C@]2(O)C(=O)CO [HC, hydrocortisone, reference compound]
Level of AP activity relative to cells treated with OP-1 alone [1]: about two-fold
Level of AP activity relative to control cells [1]: about three-fold
MPSF function in concert with OP-1 (figure title) (AP activity in FRC cells): is a MPSF in concert with OP-1
Stimulation of AP activity by HC alone (HC 0.05–5 nM alone, 48 hours (FIG. 7)): did not stimulate AP activity

CC(=O)[C@H]1CC[C@H]2[C@@H]3CCC4=CC(=O)CC[C@]4(C)[C@H]3CC[C@]12C [PG, progesterone, reference compound]
MPSF function in concert with OP-1 (figure title) (AP activity in FRC cells): is a MPSF in concert with OP-1
Level of AP activity relative to cells treated with OP-1 alone [2]: about two-fold
Level of AP activity relative to control cells [2]: about four-fold
Stimulation of AP activity beyond control cells (PG alone 5 nM, 48 hours (FIG. 10)): about three-fold

IGF-I: insulin-like growth factor I, tested as morphogenic protein stimulatory factor (MPSF)
Stimulation of OP-1 osteogenic induction (figure title) (AP activity in FRC cells): stimulates OP-1 osteogenic induction
Potentiation of OP-1-stimulated AP activity by IGF-I (IGF-I 10 ng/ml, OP-1 100 ng/ml (FIG. 3)): 1.5–2 fold
Synergistic effect on AP level, timing of IGF-I addition (IGF-I 25 ng/ml added 6 h or later after OP-1 500 ng/ml, 48 h (FIG. 4)): reduced significantly
Maximum enhancement of OP-1-stimulated AP activity by IGF-I (IGF-I 25 ng/ml, OP-1 200 ng/ml (FIG. 3)): about 2.5 fold
Stimulation of AP activity by IGF-I in the absence of OP-1 (IGF-I 1–100 ng/ml, no OP-1 (FIG. 3)): did not stimulate AP activity
Enhancement of OP-1-stimulated AP activity by IGF-I [3]: 3–4 fold
Kind of stimulatory effect of IGF-I on OP-1-stimulated AP activity [3]: synergistic
Potentiation of OP-1-stimulated AP activity at higher IGF-I concentrations (IGF-I above 25 ng/ml (up to 100 ng/ml) with OP-1 (FIG. 3)): no longer potentiates
Synergistic effect on AP level, timing of IGF-I addition (OP-1 500 ng/ml and IGF-I 25 ng/ml added simultaneously, 48 h (FIG. 4)): maximum synergistic effect
Stimulation of AP activity by IGF-I alone (exogenous IGF-I alone up to 300 ng/ml, no OP-1 (FIG. 1)): did not stimulate AP activity
Synergistic effect on AP level, timing of IGF-I addition (pre-incubation with IGF-I 25 ng/ml for 24 h followed by OP-1 500 ng/ml): abolishes the synergistic effect

IGF-II: member of the IGF growth factor family
Stimulation of OP-1 osteogenic induction (figure title) (AP activity in FRC cells): does not stimulate OP-1-induced osteogenic induction
Effect of IGF-II on OP-1-stimulated increase in AP activity (IGF-II 10–300 ng/ml + OP-1 500 ng/ml (FIG. 11)): neither enhanced nor inhibited
Effect of IGF-II on the synergistic effect of IGF-I on OP-1 (IGF-II (925 ng/ml as printed) + IGF-I 25 ng/ml + OP-1 500 ng/ml): does not further potentiate

TGF-β
Stimulation of OP-1-induced osteogenic induction (figure title) (AP activity in FRC cells, OP-1 100, 200 or 500 ng/ml (FIG. 12)): does not stimulate OP-1-induced osteogenic induction
Synergistic effect of TGF-β with OP-1 on AP activity (TGF-β 0.05–3.0 ng/ml with OP-1 (FIG. 12)): did not exhibit any synergistic effect
Stimulation of AP activity by TGF-β alone (TGF-β alone, no OP-1 (FIG. 12)): did not stimulate AP activity

hGH: growth hormone (hGH), purchased from Sigma
MPSF function in concert with OP-1 (figure title) (AP activity in FRC cells): is a MPSF in concert with OP-1
Induction of AP activity over OP-1 alone (all hGH concentrations tested (10–1000 ng/ml) + 200 ng/ml OP-1, 48 hours (FIG. 6)): stimulated the induction of AP activity
Concentration dependence of hGH stimulation of AP activity (higher versus lower hGH concentrations + 200 ng/ml OP-1, 48 hours (FIG. 6)): more of a stimulatory effect

insulin: insulin, purchased from Sigma
Level of AP activity relative to cells treated with OP-1 alone [4]: about two-fold
Level of AP activity relative to control cells [4]: about four-fold
MPSF function in concert with OP-1 (figure title) (AP activity in FRC cells): is a MPSF in concert with OP-1
Stimulation of AP activity by insulin alone (insulin 0.05–5 nM alone, 48 hours (FIG. 8)): did not stimulate AP activity

— patent US7026292B1, “Compositions and therapeutic methods using morphogenic proteins and stimulatory factors” (Stryker Corporation, priority 1995, dated 2006)
